Tests used:
[1] = system: H9; assay: XTT viability assay, H9; assay type: cell-based, human; settings: 1-day treatment, compared with Jurkat (>10 μM)
Procedure: (§1) Figure 1 AD2900 inhibits human lymphocyte proliferation in allogeneic activation (A, B) The levels of proliferative response of human peripheral blood lymphocytes (PBMCs) after 1-day pretreatment with different concentrations of AD2900, AD2750, YZ138, YZ158, and YZ297 (A) or AD2900, FTY720, and SEW2871 (B) were tested by human allogeneic mixed lymphocyte reaction (MLR) assay, followed by a [3H] thymidine incorporation analysis. (C) Apoptosis of AD2900-treated activated PBMCs was tested by AnnexinV-propidium iodide (PI) FACS analysis following 1-day AD2900 pretreatment and MLR. All the samples were compared to the untreated PBMC control. (D) IFN-γ secretion from activated PBMCs was tested by ELISA following a 1-day AD2900 pretreatment in MLR. On the 5th day of hMLR, supernatants were collected and assayed for the level of IFN-γ. (E) Jurkat cell viability after a 1-day treatment with different concentrations of AD2900, FTY720, and SEW2871 was tested by XTT viability assay. (F) H9, CEM/C1, and Molt4 cell viability after a 1-day treatment with different concentrations of AD2900 was tested by XTT viability assay. Graphs summarize the results of at least three independent experiments. Results of Student’s t-test: *(P < 0.05, two-tailed test), ** (P < 0.01, two-tailed test), *** (P < 0.001, two-tailed test), **** (P < 0.0001, two-tailed test). […]

[2] = system: Molt4; assay: XTT viability assay, Molt4; assay type: cell-based, human; settings: 1-day treatment, compared with Jurkat (>10 μM)
Procedure: as §1

[3] = molecular target: S1P1 (Homo sapiens, UniProt P21453); assay: S1P1 antagonist assay, Tango S1P1 (EDG1)-bla U-2 OS cells; assay type: cell-based; set-up: Tango fusion partner (protease site + GAL4-VP16 transcription factor); host or cells: Tango S1P1 (EDG1)-bla U-2 OS cells; settings: S1P1 TANGO U-2 OS cell line
Sequence of S1P1 (P21453 whole entry, the tested form may be a part): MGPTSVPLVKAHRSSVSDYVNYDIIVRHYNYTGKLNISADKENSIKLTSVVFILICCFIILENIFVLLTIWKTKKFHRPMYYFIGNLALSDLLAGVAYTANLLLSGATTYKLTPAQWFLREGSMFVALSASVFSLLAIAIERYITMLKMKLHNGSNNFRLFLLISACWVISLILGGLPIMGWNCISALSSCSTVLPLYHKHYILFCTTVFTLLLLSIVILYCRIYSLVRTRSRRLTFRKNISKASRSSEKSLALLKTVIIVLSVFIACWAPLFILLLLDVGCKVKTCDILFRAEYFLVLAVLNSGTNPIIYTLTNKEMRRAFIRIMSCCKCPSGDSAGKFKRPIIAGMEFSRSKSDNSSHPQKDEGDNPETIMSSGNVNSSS
Procedure: Since AD2900 is a sphingolipid analogue with properties that resemble those of S1P, we intended to examine its ability to interact with the S1P receptors. To delineate whether AD2900 can function as an agonistic or antagonistic compound to any of the S1P receptors, we used a high-throughput screening cell-based assay, employing cell lines stably transfected with human S1P receptors 1, 2, 3, 4, or 5 [37]. In this experiment, a compound with an IC50 or EC50 value ≤10 μM for a certain S1P receptor is considered active as an antagonist or an agonist, respectively. The results illustrate that AD2900 acts as an antagonist to all S1P receptors (Table 1, Supplementary Figure 3). […] No agonist activation was evident.
The S1P1 agonist test and S1P2, S1P3, S1P4, and S1P5 agonist and antagonist tests were conducted as previously described using S1P1 CRE-bla CHO cells, S1P2 CRE-bla CHO cells, S1P3 NFAT-bla CHO cells, Tango™ S1P4 (EDG6)-bla U-2 OS cells, and Tango™ S1P5 ([…])-bla U-2 OS cells. The S1P1 antagonist assay was carried out according to the manufacturer’s instructions using a Tango™ S1P1 (EDG1)-bla U-2 OS Cell-Based Assay (Invitrogen, NY, USA).

[4] = system: Jurkat cell line; assay: XTT viability assay, Jurkat; assay type: cell-based, human; settings: 1-day treatment
Procedure: as §1

For `CCCCCCCCCCCCCCCCNC(CO)(CO)CO` [AD2900], the “cell viability, H9” value [1] was “reduced cell viability could be detected even at lower concentrations”, the “cell viability, Molt4” value [2] was “reduced cell viability could be detected even at lower concentrations” and the IC50 [3] was 3.8 µM. For the same molecule, the “concentrations leading to reduced viability of Jurkat cells” value [4] was “higher than 10 μM” and the “effect on Jurkat viability compared to FTY720 and SEW2817” value [4] was “lower than that with FTY720 treatment and higher than that with SEW2817”.
